From US20120142750A1, “INDOLEAMINE 2,3-DIOXYGENASE PATHWAYS IN THE GENERATION OF REGULATORY T CELLS” (Regents of the University of Minnesota, priority 2005, published 2012)

System: BM3 T cells
Assay: Ex vivo T cell suppression assays with sorted Tregs from treated mice
Format: in vivo, mouse
Experimental: CpG Oligonucleotides. CpG-ODNs (CpG no. 1826, […]; (SEQ ID NO:4) and sequence matched non-CpG-B no. 2138, […] (SEQ ID NO:5)) with fully phosphorothioate backbones were purchased from Coley Pharmaceuticals. Mice were injected with relatively high doses of ODNs (50 μg/mouse, i/v) as described (Mellor et al. J Immunol 2005; 175:5601-5605).
1-methyl-[D]-tryptophan (1 mT). 1 mT (catalog number 45, 248-3, Sigma) was prepared as a 20 mM stock solution in 0.1 N NaOH, adjusted to pH 7.4, and stored at −20° C. protected from light. For in vitro use, 1 mT was added to MLRs to a final concentration of 100 μM. For in vivo treatment, slow-release polymer pellets (*5 mg/day) containing 1 mT or vehicle alone were inserted under the dorsal skin as described (Munn et al. Science 1998; 281:1191-1193) 24 hours before CpG treatment.
Preparative flow cytometry to sort CD4+ T cells subsets. CD4+ T cell subsets were purified using a Mo-Flo cytometer as described (Mellor et al. J Immunol 2005; 175:5601-5605; Munn et al. Immunity 2005; 22:1-10).
Ex vivo T cell suppression assays. Suppression assays were performed by adding sorted CD4+ cells to T cell proliferation assays (72 hour thymidine incorporation assays) containing responder H-2K^b-specific splenocytes from BM3 TCR transgenic mice (nylon-wool enriched) and CD11c+ splenocytes (AutoMacs enriched) from CBK (H-2K^b transgenic CBA) mice prepared as described (Mellor et al. J Immunol 2005; 175:5601-5605).

Structure (SMILES): Cn1cc(C[C@@H](N)C(=O)O)c2ccccc21 [Inhibitor 1MT, 1-methyl-D-tryptophan]
- reversal of Treg-mediated suppression by IDO inhibitor added to parallel cultures (100 μM in culture, Tregs from CpG-treated mice): did not reverse suppression
- CpG-mediated stimulation of Treg suppressive functions, IDO inhibitor given to Treg donor mice (slow-release pellets 24 hours before CpG, IDO-WT mice): prevented CpG-mediated stimulation of Treg suppressive functions
